Where “and” joins values, the source holds several entries; their conditions need not be identical. Equal values may be shown once. Inconclusive results and toxic doses are left out.
Tested on: L1210 leukemia ip in BDF1 mice, survival T/C
Assay: NCI In Vivo Anticancer Drug Screen. Data for tumor model L1210 Leukemia (intraperitoneal) in B6D2F1 (BDF1) mice
Conditions: higher = longer survival
Outline: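 Read-out is survival time, reported as the treated-group measurement over the vehicle-control measurement.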

[1] = endpoint: mean survival time, dose: 100.0 mg/kg/injection, schedule: Q04DX003 (ip), vehicle: saline with Tween-80
[2] = endpoint: mean survival time, dose: 200.0 mg/kg/injection, schedule: Q04DX003 (ip), vehicle: saline with Tween-80
[3] = endpoint: mean survival time, dose: 400.0 mg/kg/injection, schedule: Q04DX003 (ip), vehicle: saline with Tween-80

## NC(Cc1ccc(N(CCCl)CCCl)cc1)C(=O)O (stereo not given)
endpoint: mean survival time, dose: 0.32 mg/kg/injection, schedule: Q01DX Z (ip), vehicle: carboxymethylcellulose (CMC)
  T/C: 110 % of control
endpoint: mean survival time, dose: 0.37 mg/kg/injection, schedule: Q01DX Z (im), vehicle: saline
  T/C: 111 % of control
endpoint: mean survival time, dose: 0.37 mg/kg/injection, schedule: Q01DX Z (ip), vehicle: saline
  T/C: 111 % of control
endpoint: mean survival time, dose: 0.37 mg/kg/injection, schedule: Q01DX Z (sc), vehicle: saline
  T/C: 104 % of control
endpoint: mean survival time, dose: 0.5 mg/kg/injection, schedule: Q01DX010 (ip), vehicle: alkali diluted with saline
  T/C: 122 % of control and 123 % of control
endpoint: mean survival time, dose: 0.51 mg/kg/injection, schedule: Q01DX Z (ip), vehicle: carboxymethylcellulose (CMC)
  T/C: 119 % of control
endpoint: mean survival time, dose: 0.64 mg/kg/injection, schedule: Q01DX Z (ip), vehicle: carboxymethylcellulose (CMC)
  T/C: 122 % of control
endpoint: mean survival time, dose: 0.75 mg/kg/injection, schedule: Q01DX Z (im), vehicle: saline
  T/C: 122 % of control
endpoint: mean survival time, dose: 0.75 mg/kg/injection, schedule: Q01DX Z (ip), vehicle: saline
  T/C: 115 % of control
endpoint: mean survival time, dose: 0.75 mg/kg/injection, schedule: Q01DX Z (sc), vehicle: saline
  T/C: 113 % of control
endpoint: mean survival time, dose: 1.0 mg/kg/injection, schedule: Q01DX010 (ip), vehicle: alkali diluted with saline
  T/C: 123 % of control
endpoint: mean survival time, dose: 1.0 mg/kg/injection, schedule: Q01DX Z (ip), vehicle: methylcellulose (MC)
  T/C: 151 % of control
endpoint: mean survival time, dose: 1.25 mg/kg/injection, schedule: Q01DX010 (ip), vehicle: saline
  T/C: 118 % of control
endpoint: mean survival time, dose: 1.28 mg/kg/injection, schedule: Q01DX Z (ip), vehicle: carboxymethylcellulose (CMC)
  T/C: 151 % of control
endpoint: mean survival time, dose: 1.5 mg/kg/injection, schedule: Q01DX Z (sc), vehicle: saline
  T/C: 119 % of control
endpoint: mean survival time, dose: 2.5 mg/kg/injection, schedule: Q01DX009 (ip), vehicle: saline
  T/C: 123 % of control and 124 % of control
endpoint: mean survival time, dose: 2.56 mg/kg/injection, schedule: Q01DX Z (ip), vehicle: carboxymethylcellulose (CMC)
  T/C: 166 % of control
endpoint: mean survival time, dose: 3.0 mg/kg/injection, schedule: Q01DX006 (iv), vehicle: saline
  T/C: 119 % of control
endpoint: mean survival time, dose: 3.0 mg/kg/injection, schedule: Q01DX Z (im), vehicle: saline
  T/C: 166 % of control and 176 % of control
endpoint: mean survival time, dose: 3.0 mg/kg/injection, schedule: Q01DX Z (ip), vehicle: saline
  T/C: 150 % of control and 201 % of control
endpoint: mean survival time, dose: 3.0 mg/kg/injection, schedule: Q01DX Z (sc), vehicle: saline
  T/C: 161 % of control
endpoint: mean survival time, dose: 3.2 mg/kg/injection, schedule: Q01DX Z (ip), vehicle: saline
  T/C: 113 % of control
endpoint: mean survival time, dose: 4.0 mg/kg/injection, schedule: Q01DX009 (ip), vehicle: saline
  T/C: 187 % of control and 200 % of control
endpoint: mean survival time, dose: 5.0 mg/kg/injection, schedule: Q01DX009 (ip), vehicle: saline
  T/C: 167 % of control
endpoint: mean survival time, dose: 5.0 mg/kg/injection, schedule: Q01DX010 (ip), vehicle: saline
  T/C: 152 % of control
endpoint: mean survival time, dose: 6.0 mg/kg/injection, schedule: Q01DX006 (iv), vehicle: saline
  T/C: 114 % of control
endpoint: mean survival time, dose: 6.0 mg/kg/injection, schedule: Q01DX Z (im), vehicle: saline
  T/C: 154 % of control
endpoint: mean survival time, dose: 6.0 mg/kg/injection, schedule: Q01DX Z (ip), vehicle: saline
  T/C: 164 % of control
endpoint: mean survival time, dose: 6.0 mg/kg/injection, schedule: Q01DX Z (sc), vehicle: saline
  T/C: 185 % of control
endpoint: mean survival time, dose: 6.3 mg/kg/injection, schedule: Q01DX Z (ip), vehicle: saline
  T/C: 86 % of control
endpoint: mean survival time, dose: 8.0 mg/kg/injection, schedule: Q01DX001 (ip), vehicle: carboxymethylcellulose (CMC)
  T/C: 181 % of control
endpoint: mean survival time, dose: 8.0 mg/kg/injection, schedule: Q01DX009 (ip), vehicle: saline
  T/C: 111 % of control and 122 % of control
endpoint: mean survival time, dose: 10.0 mg/kg/injection, schedule: Q01DX009 (ip), vehicle: saline
  T/C: 167 % of control and 193 % of control
endpoint: mean survival time, dose: 10.0 mg/kg/injection, schedule: Q01DX010 (ip), vehicle: saline
  T/C: 177 % of control
endpoint: mean survival time, dose: 12.0 mg/kg/injection, schedule: Q01DX001 (ip), vehicle: carboxymethylcellulose (CMC)
  T/C: 253 % of control
endpoint: mean survival time, dose: 12.0 mg/kg/injection, schedule: Q01DX006 (iv), vehicle: saline
  T/C: 123 % of control
endpoint: mean survival time, dose: 12.0 mg/kg/injection, schedule: Q01DX Z (oral), vehicle: saline
  T/C: 90 % of control
endpoint: mean survival time, dose: 12.0 mg/kg/injection, schedule: Q01DX Z (sc), vehicle: saline
  T/C: 111 % of control
endpoint: mean survival time, dose: 15.0 mg/kg/injection, schedule: Q01DX Z (ip), vehicle: carboxymethylcellulose (CMC)
  T/C: 172 % of control
endpoint: mean survival time, dose: 16.0 mg/kg/injection, schedule: Q01DX009 (ip), vehicle: saline
  T/C: 93 % of control
endpoint: mean survival time, dose: 16.0 mg/kg/injection, schedule: Q01DX Z (ip), vehicle: methylcellulose (MC)
  T/C: 90 % of control
endpoint: mean survival time, dose: 18.0 mg/kg/injection, schedule: Q01DX001 (ip), vehicle: carboxymethylcellulose (CMC)
  T/C: 341 % of control
endpoint: mean survival time, dose: 18.0 mg/kg/injection, schedule: Q01DX001 (ip), vehicle: saline
  T/C: 202 % of control and 233 % of control
endpoint: mean survival time, dose: 20.0 mg/kg/injection, schedule: Q01DX009 (ip), vehicle: saline
  T/C: 94 % of control
endpoint: mean survival time, dose: 20.0 mg/kg/injection, schedule: Q01DX010 (ip), vehicle: saline
  T/C: 117 % of control
endpoint: mean survival time, dose: 22.0 mg/kg/injection, schedule: Q01DX Z (ip), vehicle: carboxymethylcellulose (CMC)
  T/C: 87 % of control
endpoint: mean survival time, dose: 24.0 mg/kg/injection, schedule: Q01DX006 (iv), vehicle: saline
  T/C: 123 % of control
endpoint: mean survival time, dose: 25.0 mg/kg/injection, schedule: Q01DX001 (ip), vehicle: saline
  T/C: 118 % of control and 229 % of control and 230 % of control
endpoint: mean survival time, dose: 35.0 mg/kg/injection, schedule: Q01DX001 (ip), vehicle: saline
  T/C: 161 % of control and 240 % of control
endpoint: mean survival time, dose: 50.0 mg/kg/injection, schedule: Q01DX001 (ip), vehicle: saline
  T/C: 87 % of control
endpoint: median survival time, dose: 10.0 mg/kg/injection, schedule: Q01DX009 (ip), vehicle: saline
  T/C: 155 % of control and 156 % of control
endpoint: median survival time, dose: 20.0 mg/kg/injection, schedule: Q01DX009 (ip), vehicle: saline
  T/C: 112 % of control

## COc1ccc(CN2CCN(Cc3ccc(OC)c(OC)c3)C2c2ccc(OC)c(OC)c2)cc1OC
endpoint: mean survival time, dose: 100.0 mg/kg/injection, schedule: Q01DX009 (ip), vehicle: saline with Tween-80
  T/C: 94 % of control
[1]
  T/C: 102 % of control
endpoint: mean survival time, dose: 200.0 mg/kg/injection, schedule: Q01DX009 (ip), vehicle: saline with Tween-80
  T/C: 104 % of control
[2]
  T/C: 93 % of control
endpoint: mean survival time, dose: 400.0 mg/kg/injection, schedule: Q01DX009 (ip), vehicle: saline with Tween-80
  T/C: 108 % of control
[3]
  T/C: 91 % of control

## CN(C)C(=O)Sc1ccc(C(=O)O)cc1
endpoint: mean survival time, dose: 100.0 mg/kg/injection, schedule: Q04DX003 (ip), vehicle: gum acacia
  T/C: 109 % of control
endpoint: mean survival time, dose: 200.0 mg/kg/injection, schedule: Q04DX003 (ip), vehicle: gum acacia
  T/C: 98 % of control
endpoint: mean survival time, dose: 400.0 mg/kg/injection, schedule: Q04DX003 (ip), vehicle: gum acacia
  T/C: 113 % of control

## Cc1nc[nH]c(=O)c1CCC(C)C
endpoint: mean survival time, dose: 100.0 mg/kg/injection, schedule: Q01DX001 (ip), vehicle: Klucel (hydroxypropylcellulose) (HPC)
  T/C: 107 % of control
endpoint: mean survival time, dose: 200.0 mg/kg/injection, schedule: Q01DX001 (ip), vehicle: Klucel (hydroxypropylcellulose) (HPC)
  T/C: 105 % of control
endpoint: mean survival time, dose: 400.0 mg/kg/injection, schedule: Q01DX001 (ip), vehicle: Klucel (hydroxypropylcellulose) (HPC)
  T/C: 100 % of control

## Nc1ncnc2nc(N=Nc3ccc(C(=O)O)c(O)c3)[nH]c12
endpoint: mean survival time, dose: 100.0 mg/kg/injection, schedule: Q04DX003 (ip), vehicle: Klucel (hydroxypropylcellulose) (HPC)
  T/C: 96 % of control
endpoint: mean survival time, dose: 200.0 mg/kg/injection, schedule: Q04DX003 (ip), vehicle: Klucel (hydroxypropylcellulose) (HPC)
  T/C: 105 % of control
endpoint: mean survival time, dose: 400.0 mg/kg/injection, schedule: Q04DX003 (ip), vehicle: Klucel (hydroxypropylcellulose) (HPC)
  T/C: 102 % of control

## CSc1nc(N(C)C)c2ncn(C3OC(C[N+](=O)[O-])C(OC(C)=O)C(OC(C)=O)C3OC(C)=O)c2n1 (stereo not given)
endpoint: mean survival time, dose: 50.0 mg/kg/injection, schedule: Q04DX002 (ip), vehicle: saline
  T/C: 89 % of control
endpoint: mean survival time, dose: 100.0 mg/kg/injection, schedule: Q04DX002 (ip), vehicle: saline
  T/C: 112 % of control
endpoint: mean survival time, dose: 200.0 mg/kg/injection, schedule: Q04DX002 (ip), vehicle: saline
  T/C: 94 % of control

## Cc1cccc(NC(=O)N(C)N)c1
endpoint: mean survival time, dose: 75.0 mg/kg/injection, schedule: Q01DX001 (ip), vehicle: carboxymethylcellulose (CMC)
  T/C: 96 % of control
endpoint: mean survival time, dose: 150.0 mg/kg/injection, schedule: Q01DX001 (ip), vehicle: carboxymethylcellulose (CMC)
  T/C: 104 % of control

## CC(=O)Nc1ccc(N=Cc2ccc([N+](=O)[O-])s2)cc1
[1]
  T/C: 100 % of control
[2]
  T/C: 96 % of control
[3]
  T/C: 98 % of control
